EC50 data for 28 compounds are collected here from US10981902B2 (Merck Sharp & Dohme Corp., priority 2017, dated 2021).

Each structure is given as a SMILES string.

This experiment deals with T1, human M4 muscarinic acetylcholine receptor (Homo sapiens, UniProt P08173).
T1 construct: expressed in transfected cells; host or cells: CHO-K1
T1 sequence (P08173 1-479): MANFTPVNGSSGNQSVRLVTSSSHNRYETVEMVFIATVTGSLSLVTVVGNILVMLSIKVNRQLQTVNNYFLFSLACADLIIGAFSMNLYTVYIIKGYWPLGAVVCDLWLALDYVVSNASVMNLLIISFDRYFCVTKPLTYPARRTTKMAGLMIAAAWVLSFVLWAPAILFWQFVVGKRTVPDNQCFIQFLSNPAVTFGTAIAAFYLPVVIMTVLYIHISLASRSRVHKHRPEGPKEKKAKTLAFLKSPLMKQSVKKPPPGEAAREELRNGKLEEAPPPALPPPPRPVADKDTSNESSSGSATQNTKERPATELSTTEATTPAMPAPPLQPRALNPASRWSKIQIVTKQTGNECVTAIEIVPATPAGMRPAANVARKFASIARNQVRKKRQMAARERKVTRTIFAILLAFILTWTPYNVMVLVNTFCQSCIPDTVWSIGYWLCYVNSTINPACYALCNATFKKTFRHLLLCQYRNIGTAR
Briefly: human FLIPR-based M4 PAM assay (calcium mobilization, CHO-K1 cells with human M4 receptor and Gαqi5). It is filed as cell-based. To be noted: inflection point (IP) of dose response curve, acetylcholine added at 20% of maximum response, read-out: M4 FLIPPR Hu IP. How it is done: In a typical experiment the M4 muscarinic acetylcholine receptor modulating activity of the compounds of the present invention was determined in accordance with the following experimental method. CHO-K1 cells stably transfected with human M4 receptor and chimeric G-protein Gαqi5 (Coward P, et al., Analytical Biochemistry, 270:242-248 (1999)) are thawed from liquid N2 storage, resuspended in growth medium, plated in black, clear bottom 384 well plates, and incubated 16-20 hours at 37° C., 5% CO2. On the day of assay, growth medium is removed, the cells are washed 2 times with wash buffer, and cells are incubated in dye loading buffer at 37° C., 5% CO2 for ˜1 hour. Following dye loading the cell plates are placed in a FLIPR Tetra instrument and while monitoring dye fluorescence (excitation […]), 10 uL of test substance at increasing concentrations is added, and fluorescence values are recorded for 4 min. Next, 10 uL of acetylcholine is added (final concentration calculated so as to achieve 20% of the maximum acetycholine response), and the fluorescence reading is continued for 3.5 min. In some cases, a third addition of acetylcholine (final concentration calculated to achieve 70% of the maximal acetylcholine response) is performed. The resulting dose response curves are fit to a 4 parameter logistic equation and the final result is determined as the inflection point (IP) of the curve
CHO-K1 cells stably transfected with human M4 receptor and chimeric G-protein Gαqi5 are thawed from liquid N2 storage, resuspended in growth medium, plated in black, clear bottom 384 well plates, and incubated 16-20 hours at 37° C., 5% CO2.
On the day of assay, growth medium is removed, the cells are washed 2 times with wash buffer, and cells are incuabted in dye loading buffer at 37° C., 5% CO2 for ˜1 h. Following dye loading the cell plates are placed in a FLIPR Tetra instrument and while monitoring dye fluorescence ([…]), 10 uL of test substance at increasing concentrations is added, and fluorescence values are recorded for 4 min. Next, 10 uL of acetylcholine is added (final concentration calculated so as to achieve 20% of the maximum acetycholine response), and the fluorescence reading is continued for 3.5 min. In some cases, a third addition of acetylcholine (final concentration calculated to achieve 70% of the maximal acetylcholine response) is performed.
Turning to `Cc1nc2cc(-c3nc(C#N)ccc3-c3cnc(CCC(F)(F)F)o3)ccc2n1C` [Example 113, 6-(1,2-dimethyl-1H-benzo[d]imidazol-5-yl)-5-(2-(3,3,3-trifluoropropyl)oxazol-5-yl)picolinonitrile], the EC50 is 118 nM.

On to `Cc1nc2cc(-c3nc(C#N)ccc3-c3cnc(CC(C)(C)F)o3)ccc2n1C` [Example 89, 6-(1,2-dimethyl-1H-benzo[d]imidazol-5-yl)-5-(2-(2-fluoro-2-methylpropyl)oxazol-5-yl)picolinonitrile], for which the EC50 worked out at 112 nM.

In the case of `Cc1nc2cc(-c3nc(C#N)ccc3-c3cnc(CC(C)(C)C)o3)ccn2n1` [Example 34, 6-(2-methyl[1,2,4]-triazolo[1,5-a]pyridin-7-yl)-5-(2-neopentyl-oxazol-5-yl)picolino-nitrile], the EC50 is 107 nM.

As to `N#Cc1ccc(-c2cnc(CC3(C(F)(F)F)CC3)o2)c(-c2ccn3ccnc3c2)n1` [Example 21, 6-(imidazo[1,2-a]-pyridin-7-yl)-5-(2-((1-(trifluoromethyl)-cyclopropyl)methyl)-oxazol-5-yl)picolino-nitrile], the EC50 was found to be 82 nM.

As for `CN1Cc2ncc(-c3nc(C#N)ccc3-c3cnc(CC(C)(C)C)o3)cc2C1=O` [Example 18, 6-(6-methyl-5-oxo-6,7-dihydro-5H-pyrrolo[3,4-b]-pyridin-3-yl)-5-(2-neopentyloxazol-5-yl)picolinonitrile], the EC50 is 150 nM.

For the compound `N#Cc1ccc(-c2cnc(CC3CCC3)o2)c(-c2ccc3cccnc3c2)n1` [Example 29, 5-(2-(cyclobutyl-methyl)oxazol-5-yl)-6-(quinolin-7-yl)-picolinonitrile], the EC50 worked out at 30 nM.

As to `CC1(Cc2ncc(-c3cc4c(nc3-c3ccc5ccc(F)nc5c3)C(O)CC4)o2)CCCC1` (stereo not shown) [Example 42, 2-(2-fluoroquinolin-7-yl)-3-(2-((1-methylcyclopentyl)methyl)oxazol-5-yl)-6,7-dihydro-5H-cyclopenta[b]pyridin-7-ol], the EC50 was found to be 65 nM.

Regarding `N#Cc1ccc(-c2cnc(CC3CCCC3)o2)c(-c2ccc3cccnc3c2)n1` [Example 50, 5-(2-(cyclopentylmethyl)oxazol-5-yl)-6-(quinolin-7-yl)picolinonitrile], the EC50 came to 24 nM.

Turning to `N#Cc1ccc(-c2cnc(CC3(F)CCC3)o2)c(-c2ccc3cccnc3c2)n1` [Example 73, 5-(2-((1-fluorocyclobutyl)methyl)oxazol-5-yl)-6-(quinolin-7-yl)picolinonitrile], the EC50 came to 65 nM.

For `CC(=O)OC1CCc2cc(-c3cnc(CC4(C)CCCC4)o3)c(-c3ccc4ccc(F)nc4c3)nc21` (stereo not shown) [Example 5, 2-(2-fluoroquinolin-7-yl)-3-(2-((1-methylcyclopentyl)-methyl)oxazol-5-yl)-6,7-dihydro-5H-cyclopenta[b]pyridin-7-yl acetate], the EC50 was 170 nM.

`Cc1cn2ccc(-c3nc(C#N)ccc3-c3cnc(CC4(O)CCCC4)o3)cc2n1` [Example 75, 5-(2-((1-hydroxycyclopentyl)methyl)oxazol-5-yl)-6-(2-methylimidazo [1,2-a]pyridin-7-yl) picolinonitrile]: the EC50 is 230 nM.

For the compound `CN1Cc2ncc(-c3nc4c(cc3-c3cnc(CC5(C)CCCC5)o3)CCC4)cc2C1=O` [Example 17, 6-methyl-3-(3-(2-((1-methylcyclo-pentyl)methyl)-oxazol-5-yl)-6,7-dihydro-5H-cyclo-penta[b]pyridin-2-yl)-6,7-dihydro-5H-pyrrolo[3,4-b]-pyridin-5-one], the EC50 was 26 nM.

With `Cc1cn2ccc(-c3nc(C#N)ccc3-c3cnc(CC4(F)CCCC4)o3)cc2n1` [Example 79, 5-(2-((l-fluorocyclopentyl)methyl)oxazol-5-yl)-6-(2-methylimidazo [1,2-a]pyridin-7-yl) picolinonitrile], the EC50 stood at 31 nM.

Regarding `CC(Cc1ncc(-c2ccc(C#N)nc2-c2ccn3ccnc3c2)o1)C(F)(F)F` (racemic) [Example 38, 6-(imidazo[1,2-a]-pyridin-7-yl)-5-(2-(3,3,3-trifluoro-2-methylpropyl)oxazol-5-yl)picolinonitrile], the EC50 was 212 nM.

For `Cc1nc2cc(-c3nc(C#N)ccc3-c3cnc(CC(C)(C)C(F)(F)F)o3)ccn2n1` [Example 110, 6-(2-methyl-[1,2,4]triazolo [1,5-a]pyridin-7-yl)-5-(2-(3,3,3-trifluoro-2,2-dimethylpropyl)oxazol-5-yl)picolinonitrile], the EC50 turned out to be 118 nM.

Regarding `Cc1nc(CC2CCCC2)oc1-c1ccc(C#N)nc1-c1ccc2cccnc2c1` [Example 64, 5-(2-(cyclopentylmethyl)-4-methyloxazol-5-yl)-6-(quinolin-7-yl)picolinonitrile], the EC50 turned out to be 49 nM.

Turning to `CN1Cc2ncc(-c3nc(C#N)ccc3-c3cnc(CC4(F)CCCC4)o3)cc2C1=O` [Example 77], the EC50 amounted to 45 nM.

In the case of `CN1Cc2ccc(-c3nc4c(cc3-c3cnc(CC5(C)CCCC5)o3)CCC4)cc2C1=O` [Example 4, 2-methyl-6-(3-(2-((1-methylcyclopentyl)methyl)oxazol-5-yl)-6,7-dihydro-5H-cyclopenta[b]pyridin-2-yl)isoindolin-1-one], the EC50 worked out at 30 nM.

`N#Cc1ccc(-c2cnc(CC3(F)CCCC3)o2)c(-c2ccn3ccnc3c2)n1` [Example 76, 5-(2-((1-fluorocyclopentyl)methyl)oxazol-5-yl)-6-(imidazo [1,2-a]pyridin-7-yl) picolinonitrile]: the EC50 is 15 nM.

For `Cc1nc2cc(-c3ncc(F)cc3-c3cnc(CCC(C)(C)F)o3)ccc2n1C` [Example 105, 5-(2-(1,2-dimethyl-1H-benzo[d]imidazol-5-yl)-5-fluoropyridin-3-yl)-2-(3-fluoro-3-methylbutyl)oxazole], the EC50 was found to be 198 nM.

For `Cc1cn2ccc(-c3nc(C#N)ccc3-c3cnc(CCC(F)(F)F)o3)cc2n1` [Example 107, 6-(2-methylimidazo[1,2-a]pyridin-7-yl)-5-(2-(3,3,3-trifluoropropyl)oxazol-5-yl)picolinonitrile], the EC50 was 96 nM.

`COc1cc2ccc(-c3nc(C)ccc3-c3cnc(Cc4ccccc4F)o3)cc2nn1` [Example 48, 2-(2-fluorobenzyl)-5-(2-(3-methoxycinnolin-7-yl)-6-methylpyridin-3-yl)oxazole]: the EC50 stood at 19 nM.

Take `CC(C)(C)Cc1ncc(-c2cc(F)cnc2-c2ccn3ccnc3c2)o1` [Example 27, 5-(5-fluoro-2-(imidazo[1,2-a]-pyridin-7-yl)-pyridin-3-yl)-2-neopentyloxazole]: the EC50 came to 113 nM.

On to `CC(CCc1ncc(-c2ccc(C#N)nc2-c2ccn3ccnc3c2)o1)C(F)(F)F` (stereo not shown) [Example 40, 6-(imidazo[1,2-a]-pyridin-7-yl)-5-(2-(4,4,4-trifluoro-3-methylbutyl)oxazol-5-yl)picolinonitrile], for which the EC50 is 46 nM.

As to `Cc1cn2ccc(-c3nc(C#N)ccc3-c3cnc(CCC(O)C(F)(F)F)o3)cc2n1` (stereo not shown) [Example 106, 6-(2-methylimidazo[1,2-a]pyridin-7-yl)-5-(2-(4,4,4-trifluoro-3-hydroxybutyl)oxazol-5-yl)picolinonitrile], the EC50 amounted to 143 nM.

In the case of `CN1Cc2ccc(-c3nc(C(F)F)ccc3-c3cnc(CC(C)(C)C)o3)cc2C1=O` [Example 15, 6-(6-(difluoro-methyl)-3-(2-neopentyloxazol-5-yl)pyridin-2-yl)-2-methylisoindolin-1-one], the EC50 was 80 nM.

`Cc1cn2ccc(-c3nc(C#N)ccc3-c3cnc(CCC(C)(C)F)o3)cc2n1` [Example 116, 5-(2-(3-fluoro-3-methylbutyl)oxazol-5-yl)-6-(2-methylimidazo [1,2-a]pyridin-7-yl)picolinonitrile]: the EC50 was determined as 47 nM.

Turning to `COCc1cn2ccc(-c3nc(C#N)ccc3-c3cnc(CC4CC4)o3)cc2n1` [Example 93, 5-(2-(cyclopropylmethyl)oxazol-5-yl)-6-(2-(methoxymethyl)imidazo[1,2-a]pyridin-7-yl)picolinonitrile], the EC50 came to 137 nM.
